According to patent publication US12643866B2, “Small molecule compound serving as JAK kinase inhibitor and use thereof” (TECHNODERMA MEDICINES, INC., priority 2020, dated 2026):

Experiments:
Assay type in all cases: biochemical
JAK1 = JAK1 (Homo sapiens, UniProt P23458); assay: Detection of enzyme activity inhibition of JAK kinases (ULight-JAK substrate, Eu-labeled antibody): JAK1; details: JAK1 20 nM, ATP 40 μM, substrate 50 nM, 2 hours reaction at room temperature; read-out: JAK1 half-maximum inhibitory concentration (IC50)
Description: (§1) Test Example 1: Detection of Enzyme Activity Inhibition of Small Molecule Inhibitors of JAK Kinases
(§2) Kinase reaction buffer: The kinase reaction buffer was prepared with the following components: 50 mM HEPES, pH 7.5, 1 mM EGTA, 10 mM MgCl2, 2 mM DTT, and 0.01% Tween20. 1× test buffer: A test buffer was prepared, and the 10× test buffer was diluted with deionized water (deionized water: test buffer=9:1) to obtain the 1× test buffer. 4× kinase solution: JAK kinase was diluted with a kinase reaction buffer to a final concentration of 4× (JAK1:80 nM, JAK2/JAK3/Tyk2:4 nM). 4× substrate solution: ULight™-JAK (Tyr1023) substrate was diluted with the kinase reaction buffer to 200 nM (final concentration: 50 nM). 4×ATP solution: ATP was diluted with the kinase reaction buffer to a final concentration of 4× (JAK1:160 μM, JAK2/JAK3/Tyk2: 40 μM). 4× test compound solution: The compounds to be tested were dissolved in DMSO to prepare 10 mM stock solutions, which were diluted to have the desired concentrations through 3-fold gradient dilution, 10 concentrations were set for each compound, and final concentrations of the test compounds ranged from 10 μM to 0.5 nM. 4× enzyme reaction termination solution: EDTA was dissolved in a 1× test buffer to 40 mM (final concentration of EDTA: 10 mM). 4× test antibody solution: Eu-labeled test antibodies (anti-phosphotyrosine (PT66)) were diluted with 1× test buffer to 8 nM (final concentration of the antibodies: 2 nM).
(§3) 2.5 μL of the 4× kinase solution and 2.5 μL of each of the 4× test compound solutions having different concentrations were added into a 384-well microwell plate sequentially, with 2 duplicate wells set for each concentration, and an enzyme solution blank control group and a negative control group (DMSO group) were also provided. The 384-well plate was oscillated to mix the enzyme and the compound uniformly, centrifuged at 1000 rpm for 1 minute, and incubated at room temperature for 60 minutes. 2.5 μL of the 4× substrate solution was added into the 384-well plate, and centrifuged at 1000 rpm for 1 minute. 2.5 μL of the 4×ATP solution was added into the 384-well plate, and centrifuged at 1000 rpm for 1 minute to start the enzyme reaction. JAK1 reacted at room temperature for 2 hours, and JAK2/JAK3/Tyk2 reacted at room temperature for 1 hour. The final concentration of each component in the JAK1 reaction was: JAK1:20 nM; substrate: 50 nM; and ATP: 40 μM. The final concentrations of the test compounds ranged from 10 μM to 0.5 nM. The final concentration of each component in the JAK2/JAK3/Tyk2 reaction was: JAK2: 1 nM; substrate: 50 nM; and ATP: 10 μM. The final concentrations of the test compounds ranged from 10 μM to 0.5 nM. After the enzyme reaction ended, 5 μL of the 4× enzyme reaction termination solution was added into each well of the 384-well plate, centrifuged at 1000 rpm for 1 minute, and incubated at room temperature for 5 minutes. 5 μL of the 4× test antibody solution (final concentration of the test antibodies was 2 nM) was added into each well of the 384-well plate, centrifuged at 1000 rpm for 1 minute, and incubated at room temperature for 1 hour. After incubation of the antibodies, a signal value of each well was measured with Envision plate reader.
(§4) Assuming that an inhibition rate of the enzyme solution blank control group was 100% and an inhibition rate of the negative control group (DMSO group) was 0%, an inhibition rate corresponding to each concentration was calculated. Nonlinear regression analysis was performed on the concentration logarithm values and corresponding percentage inhibition rates of the test compounds in GraphPad Prism software to obtain the half-maximum inhibitory concentrations (IC50) of the test compounds.

JAK2 = JAK2 (Homo sapiens, UniProt O60674); assay: Detection of enzyme activity inhibition of JAK kinases (ULight-JAK substrate, Eu-labeled antibody): JAK2; details: JAK2 1 nM, ATP 10 μM, substrate 50 nM, 1 hour reaction at room temperature; read-out: JAK2 half-maximum inhibitory concentration (IC50)
Description: as §1, §2, §3, §4

Tyk2 = Tyk2 (Homo sapiens, UniProt P29597); assay: Detection of enzyme activity inhibition of JAK kinases (ULight-JAK substrate, Eu-labeled antibody): Tyk2; details: ATP 10 μM, substrate 50 nM, 1 hour reaction at room temperature; read-out: Tyk2 half-maximum inhibitory concentration (IC50)
Description: as §1, §2, §3, §4

JAK3 = target: T1, JAK3 (Homo sapiens, UniProt P52333); assay: Detection of enzyme activity inhibition of JAK kinases (ULight-JAK substrate, Eu-labeled antibody): JAK3; details: ATP 10 μM, substrate 50 nM, 1 hour reaction at room temperature; read-out: JAK3 half-maximum inhibitory concentration (IC50)
T1 sequence (P52333 1-1124): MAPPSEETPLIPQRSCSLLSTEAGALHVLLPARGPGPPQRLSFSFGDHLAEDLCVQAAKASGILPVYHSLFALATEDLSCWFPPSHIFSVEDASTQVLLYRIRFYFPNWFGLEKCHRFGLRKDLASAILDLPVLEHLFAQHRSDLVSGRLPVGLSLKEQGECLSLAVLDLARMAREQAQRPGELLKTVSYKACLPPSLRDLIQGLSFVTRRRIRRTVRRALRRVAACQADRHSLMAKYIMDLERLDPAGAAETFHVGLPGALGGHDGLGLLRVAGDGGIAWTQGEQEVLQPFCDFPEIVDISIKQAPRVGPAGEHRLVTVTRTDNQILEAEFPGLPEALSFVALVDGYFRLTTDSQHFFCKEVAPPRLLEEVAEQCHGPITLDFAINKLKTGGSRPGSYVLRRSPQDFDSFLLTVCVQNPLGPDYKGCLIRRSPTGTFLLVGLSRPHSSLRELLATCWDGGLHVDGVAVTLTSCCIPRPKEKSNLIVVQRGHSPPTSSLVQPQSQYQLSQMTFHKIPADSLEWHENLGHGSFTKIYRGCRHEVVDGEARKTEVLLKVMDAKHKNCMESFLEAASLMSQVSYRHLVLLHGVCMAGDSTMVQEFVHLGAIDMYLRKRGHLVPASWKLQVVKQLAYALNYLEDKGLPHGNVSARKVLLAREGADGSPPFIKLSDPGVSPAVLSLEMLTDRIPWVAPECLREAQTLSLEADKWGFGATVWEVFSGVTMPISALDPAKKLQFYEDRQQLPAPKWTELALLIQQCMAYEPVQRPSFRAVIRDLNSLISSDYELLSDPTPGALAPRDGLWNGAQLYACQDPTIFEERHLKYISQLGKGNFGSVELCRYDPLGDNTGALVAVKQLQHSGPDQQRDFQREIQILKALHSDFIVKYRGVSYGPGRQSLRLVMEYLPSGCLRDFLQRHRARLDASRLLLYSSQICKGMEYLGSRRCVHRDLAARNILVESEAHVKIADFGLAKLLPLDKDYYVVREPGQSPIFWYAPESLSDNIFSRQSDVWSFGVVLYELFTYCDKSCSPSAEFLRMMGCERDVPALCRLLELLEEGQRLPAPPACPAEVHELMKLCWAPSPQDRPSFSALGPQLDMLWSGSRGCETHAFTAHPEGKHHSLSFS
Description: as §1, §2, §3, §4

Chain of JAK1 (P23458 whole entry): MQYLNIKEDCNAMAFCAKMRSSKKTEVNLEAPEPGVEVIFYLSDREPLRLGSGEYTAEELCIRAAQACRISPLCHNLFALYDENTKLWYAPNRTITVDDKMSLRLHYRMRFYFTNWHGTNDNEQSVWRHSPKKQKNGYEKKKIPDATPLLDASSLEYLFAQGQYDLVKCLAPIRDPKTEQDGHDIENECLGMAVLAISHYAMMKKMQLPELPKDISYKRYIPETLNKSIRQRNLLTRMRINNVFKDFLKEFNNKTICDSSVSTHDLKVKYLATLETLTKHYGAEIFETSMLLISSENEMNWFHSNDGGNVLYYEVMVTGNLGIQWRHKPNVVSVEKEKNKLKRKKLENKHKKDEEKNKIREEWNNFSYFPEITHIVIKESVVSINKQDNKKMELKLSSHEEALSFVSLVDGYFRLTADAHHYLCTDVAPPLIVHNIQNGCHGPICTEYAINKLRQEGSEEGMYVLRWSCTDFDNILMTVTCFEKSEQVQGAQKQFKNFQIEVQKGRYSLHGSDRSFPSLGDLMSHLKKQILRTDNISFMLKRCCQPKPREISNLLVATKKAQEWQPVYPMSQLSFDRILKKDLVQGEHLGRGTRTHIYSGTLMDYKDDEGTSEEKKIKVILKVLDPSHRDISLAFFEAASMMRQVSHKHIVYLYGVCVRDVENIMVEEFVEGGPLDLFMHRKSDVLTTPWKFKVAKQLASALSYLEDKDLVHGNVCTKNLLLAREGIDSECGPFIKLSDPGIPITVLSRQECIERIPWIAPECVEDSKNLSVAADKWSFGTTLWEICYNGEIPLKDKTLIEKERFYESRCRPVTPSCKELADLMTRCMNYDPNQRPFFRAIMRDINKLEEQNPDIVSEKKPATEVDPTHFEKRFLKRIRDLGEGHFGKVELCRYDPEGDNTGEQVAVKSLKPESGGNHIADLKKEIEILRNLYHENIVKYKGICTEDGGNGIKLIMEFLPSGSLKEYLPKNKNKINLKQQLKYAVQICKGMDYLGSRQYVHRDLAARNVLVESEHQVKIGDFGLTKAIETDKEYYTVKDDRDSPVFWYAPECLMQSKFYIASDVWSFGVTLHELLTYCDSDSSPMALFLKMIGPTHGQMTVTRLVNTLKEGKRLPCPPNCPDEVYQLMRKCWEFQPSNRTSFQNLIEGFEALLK
Chain of JAK2 (O60674 whole entry): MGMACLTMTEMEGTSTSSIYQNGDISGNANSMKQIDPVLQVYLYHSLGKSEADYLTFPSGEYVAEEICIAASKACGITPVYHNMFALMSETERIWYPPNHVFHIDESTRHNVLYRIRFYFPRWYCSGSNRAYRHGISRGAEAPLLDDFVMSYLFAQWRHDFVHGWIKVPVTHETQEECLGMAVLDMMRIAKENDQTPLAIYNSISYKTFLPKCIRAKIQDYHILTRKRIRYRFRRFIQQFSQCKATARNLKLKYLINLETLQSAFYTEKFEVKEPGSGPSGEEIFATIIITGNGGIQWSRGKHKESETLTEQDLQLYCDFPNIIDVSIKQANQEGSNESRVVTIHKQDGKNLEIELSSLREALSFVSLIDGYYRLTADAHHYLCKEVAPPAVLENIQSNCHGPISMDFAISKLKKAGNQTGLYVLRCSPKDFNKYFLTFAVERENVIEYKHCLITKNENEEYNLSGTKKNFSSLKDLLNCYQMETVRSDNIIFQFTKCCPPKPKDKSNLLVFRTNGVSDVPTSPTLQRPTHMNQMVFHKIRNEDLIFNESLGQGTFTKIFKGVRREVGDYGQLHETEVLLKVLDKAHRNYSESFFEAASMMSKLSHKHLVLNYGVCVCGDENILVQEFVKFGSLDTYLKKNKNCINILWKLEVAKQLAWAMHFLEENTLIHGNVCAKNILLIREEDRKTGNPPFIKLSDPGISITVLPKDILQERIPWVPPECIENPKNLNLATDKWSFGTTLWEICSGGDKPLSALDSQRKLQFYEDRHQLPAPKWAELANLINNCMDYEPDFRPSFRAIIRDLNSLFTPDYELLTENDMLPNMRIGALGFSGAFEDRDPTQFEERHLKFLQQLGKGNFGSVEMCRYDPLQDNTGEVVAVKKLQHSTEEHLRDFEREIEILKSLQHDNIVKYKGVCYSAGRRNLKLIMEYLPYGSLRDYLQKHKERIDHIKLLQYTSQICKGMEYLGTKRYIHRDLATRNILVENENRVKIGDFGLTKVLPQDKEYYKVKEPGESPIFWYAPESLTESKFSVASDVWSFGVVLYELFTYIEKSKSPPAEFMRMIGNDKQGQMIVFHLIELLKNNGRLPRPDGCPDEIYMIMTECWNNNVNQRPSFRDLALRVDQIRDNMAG
Chain of Tyk2 (P29597 whole entry): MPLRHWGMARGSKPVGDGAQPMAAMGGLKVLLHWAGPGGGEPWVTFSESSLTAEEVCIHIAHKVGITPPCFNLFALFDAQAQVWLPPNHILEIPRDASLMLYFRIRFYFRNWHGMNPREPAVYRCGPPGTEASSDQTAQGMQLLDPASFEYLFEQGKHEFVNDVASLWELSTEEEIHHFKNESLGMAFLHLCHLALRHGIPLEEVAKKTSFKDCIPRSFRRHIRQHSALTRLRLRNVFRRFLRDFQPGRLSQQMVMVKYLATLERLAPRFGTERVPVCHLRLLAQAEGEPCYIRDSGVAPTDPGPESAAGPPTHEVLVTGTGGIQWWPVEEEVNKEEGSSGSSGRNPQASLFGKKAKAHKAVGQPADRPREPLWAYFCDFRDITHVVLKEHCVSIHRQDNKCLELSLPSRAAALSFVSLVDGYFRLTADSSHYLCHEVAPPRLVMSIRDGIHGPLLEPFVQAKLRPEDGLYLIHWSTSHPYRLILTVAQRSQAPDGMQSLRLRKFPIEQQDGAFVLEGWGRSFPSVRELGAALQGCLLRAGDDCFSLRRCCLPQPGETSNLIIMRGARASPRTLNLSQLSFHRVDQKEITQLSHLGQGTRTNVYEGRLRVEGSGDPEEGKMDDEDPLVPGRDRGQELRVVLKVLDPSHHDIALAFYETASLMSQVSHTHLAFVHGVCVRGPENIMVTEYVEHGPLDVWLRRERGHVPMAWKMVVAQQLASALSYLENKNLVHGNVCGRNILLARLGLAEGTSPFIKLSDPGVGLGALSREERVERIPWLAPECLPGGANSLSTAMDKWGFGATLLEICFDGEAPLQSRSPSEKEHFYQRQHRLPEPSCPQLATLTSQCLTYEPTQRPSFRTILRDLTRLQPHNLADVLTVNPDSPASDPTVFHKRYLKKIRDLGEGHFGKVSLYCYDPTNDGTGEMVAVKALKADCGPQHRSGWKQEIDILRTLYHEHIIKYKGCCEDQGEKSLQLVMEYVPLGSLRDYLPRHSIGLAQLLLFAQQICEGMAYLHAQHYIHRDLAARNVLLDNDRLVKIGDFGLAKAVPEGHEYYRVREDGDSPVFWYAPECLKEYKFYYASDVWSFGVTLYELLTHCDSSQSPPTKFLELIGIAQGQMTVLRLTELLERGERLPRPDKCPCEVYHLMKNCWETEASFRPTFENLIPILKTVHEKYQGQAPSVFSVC

In the case of `CCNC(=O)c1ccc(Nc2nccc(-c3ccc(NC(=O)[C@@H]4CC4(F)F)nc3)n2)cc1` [TDM-180971, (S)-4((4-(6-(2,2-difluorocyclopropane-1-formamido)pyridin-3-yl)pyrimidin-2-yl)amino)-N-ethyl benzamide], the IC50 (JAK1) is reported as 6 nM, the IC50 (JAK2) is reported as 7 nM and the IC50 (Tyk2) is reported as 5 nM. The IC50 (JAK3) was 219 nM.

`CCNC(=O)c1ccc(Nc2nccc(-c3ccc(NC(=O)[C@@H]4CC4(F)F)cc3)n2)cc1` [TDM-180972] gave an IC50 (JAK1) of 4 nM, an IC50 (JAK2) of 3 nM and an IC50 (Tyk2) of 5 nM. For the same compound, the IC50 (JAK3) was 117 nM.

`Cc1cc(Nc2nccc(-c3ccc(NC(=O)[C@@H]4CC4(F)F)cc3)n2)cnc1C(N)=O` [TDM-180974] showed an IC50 (JAK1) of 7 nM, an IC50 (JAK2) of 7 nM and an IC50 (Tyk2) of 8 nM. The IC50 (JAK3) was 346 nM.

With `CCNC(=O)c1ccc(Nc2nccc(-c3ccc(NC(=O)[C@@H]4CC4(F)F)cc3)n2)cc1C` [TDM-180977, (S)-4-(4-(4-(4-(2,2-difluorocyclopropane-1-carboxamido)phenyl)pyrimidin-2-yl)amino)-N-ethyl-2-methylbenzamide] the IC50 (JAK3) was 57 nM.

In the case of `CNC(=O)c1ncc(Nc2nccc(-c3ccc(NC(=O)[C@@H]4CC4(F)F)nc3)n2)cc1C` [TDM-180979, (S)-5((4-(6-(2,2-difluorocyclopropane-1-carboxamido)pyridin-3-yl)pyrimidin-2-yl)amino)-N,3-dimethylpyridinolineamide], the IC50 (JAK1) is reported as 25 nM, the IC50 (JAK2) is reported as 33 nM and the IC50 (Tyk2) is reported as 17 nM. It also gave an IC50 (JAK3) of 931 nM.

`Cc1cc(Nc2nccc(-c3ccc(NC(=O)[C@@H]4CC4(F)F)nc3)n2)cnc1C(N)=O` [TDM-180980, (S)-5-((4-(6-(2,2-difluorocyclopropane-1-carboxamido)pyridin-3-yl)pyrimidin-2-yl)amino)-3-methyl pyridinolineamide] showed an IC50 (JAK1) of 28 nM, an IC50 (JAK2) of 30 nM and an IC50 (Tyk2) of 18 nM. For the same compound, the IC50 (JAK3) was > 5000 nM.

For `CNC(=O)c1ncc(Nc2nccc(-c3ccc(NC(=O)[C@@H]4CC4(F)F)cc3)n2)cc1C` [TDM-180981], the IC50 (JAK1) was 8 nM, the IC50 (JAK2) was 8 nM and the IC50 (Tyk2) was 8 nM. It also gave an IC50 (JAK3) of 183 nM.

For `CCNC(=O)c1ccc(Nc2nccc(-c3ccc(NC(=O)[C@@H]4CC4(F)F)nc3)n2)cc1C` [TDM-180984, (S)-4-((4-(6-(2,2-difluorocyclopropane-1-carboxamido)pyridin-3-yl)pyrimidin-2-yl)amino)-N-ethyl-2-methylbenzamide], the IC50 (JAK1) was 8 nM, the IC50 (JAK2) was 9 nM and the IC50 (Tyk2) was 5 nM. The IC50 (JAK3) was 105 nM.

With `CC(CO)c1ccc(Nc2nccc(-c3ccc(NC(=O)[C@@H]4CC4(F)F)nc3)n2)cn1` (stereo partly shown) [TDM-180987] the IC50 (JAK1) was 25 nM, the IC50 (JAK2) was 22 nM and the IC50 (Tyk2) was 17 nM. The IC50 (JAK3) was 310 nM.

`CC(CO)c1ccc(Nc2nccc(-c3ccc(NC(=O)[C@@H]4CC4(F)F)cc3)n2)cn1` (stereo partly shown) [TDM-180989] was tested, and the IC50 (JAK1) was 11 nM, the IC50 (JAK2) was 13 nM and the IC50 (Tyk2) was 14 nM. The IC50 (JAK3) was 177 nM.
